The target in experiment [1] is EGFR^L858R/T790M/C797S kinase (Homo sapiens (Human), UniProt P00533, C797S/L858R/T790M). Nature of the experiment: EGFR^L858R/T790M/C797S kinase inhibitory activity experiment. The format is biochemical. The following applies: in vitro. The method, boiled down:
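Human EGFR L858R/T790M/C797S mutant preincubated 10 min with compound (10-point dilution from 1 μM), then reacted 60 min at room temperature with ATP and kinase substrate 22. Substrate conversion read by Caliper mobility shift. % inhibition normalized to no-enzyme and no-compound wells, with IC50 from variable-slope log(inhibitor) fit.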

Experiment [2] concerns EGFR phosphorylation in Ba/F3-EGFR^L858R/T790M/C797S engineered cells. Nature of the experiment: Cell phosphorylation inhibition effect (pEGFR ELISA). The experiment is classed as cell-based, human. To be noted: for IC50: Mus musculus, Ba/F3 EGFR-L858R, EGF stimulated, ELISA pY1068, read-out: Cellular pEGFR Inhibition IC50 (nM) Ba/F3-EGFR^L858R/T790M/C797S; for inhibitory effect on EGFR phosphorylation (in words): Ba/F3-EGFR^L858R/T790M/C797S engineered cells. How it is done:
Cell line: BaF3 cells with stable overexpression of EGFR^T790M/C797S/L858R mutant genes, named BaF3-EGFR^T790M/C797S/L858R cells.
a) The medium was preheated in a 37° C. water bath.
b) The cryopreservation tube was taken from the liquid nitrogen tank, quickly placed in a 37° C. water bath, and melted completely within 1 minute.
c) The cell suspension was transferred to a 15 mL centrifuge tube containing a 10 mL medium and centrifuged at 1000 rpm for 4 minutes.
d) The supernatant was discarded, the cells were resuspended in a 1 mL medium and transferred to a […] culture dish containing a 10 mL medium, 20% serum and 50 ng/mL EGF were administered to the first-generation medium, and culture was conducted in a 37° C. and 5% CO2 incubator.
b) The cells in the culture dish were blown evenly with a 5 mL pipette, and 500 μL of the cells were pipetted out to be inoculated into a new […] culture dish and cultured in a 37° C. and 5% CO2 incubator.
a) The compound to be tested (10 mM stock solution) was diluted with 100% DMSO to 1 mM, and diluted with a culture solution in a 24-well plate to prepare of a working solution of 2 μM concentration.
b) The 2 μM working solution was diluted with a triple dilution method to obtain working solutions with approximate concentrations of 2 μM, 600 nM, 200 nM, 60 nM, and 20 nM.
a) The cells at the logarithmic growth phase were centrifuged at 1000 rpm for 4 minutes, resuspended with a medium (containing 10% serum), and counted.
b) The cells were inoculated into a 24-well plate with a cell density of 2 million cells/well, and placed in a 37° C. and 5% CO2 incubator for stabilization overnight.
a) The prepared compound was added to a 96-well plate, with 100 μL per well. The final concentrations were 1 μM, 300 nM, 100 nM, 30 nM, 10 nM, and 0 nM, and the final concentration of DMSO was 0.2%. A medium and 0.2% DMSO served as a blank control.
b) 100 ng/mL EGF was added at 1 hour and 45 minutes of administration. After 15 minutes of EGF treatment, the cells were collected and centrifuged to obtain the supernatant.
(5) Detection of Intracellular pEGFR Content
The content of EGFR and pEGFR in the supernatant was determined using an ELISA kit (Abcam, ab126439-EGFR (pY1068)+total EGFR Human ELISA).
The data was analyzed using GraphPad Prism 8.0 software to obtain a fitted curve of activity of the compounds. The IC50 of the compounds was fitted from nonlinear regression equation.
For orientation: In an ELISA, binding on a coated surface is turned into a signal by an enzyme label.

Structures are written as SMILES.

Chain of EGFR^L858R/T790M/C797S kinase (P00533 25-1210 T790M/C797S/L858R): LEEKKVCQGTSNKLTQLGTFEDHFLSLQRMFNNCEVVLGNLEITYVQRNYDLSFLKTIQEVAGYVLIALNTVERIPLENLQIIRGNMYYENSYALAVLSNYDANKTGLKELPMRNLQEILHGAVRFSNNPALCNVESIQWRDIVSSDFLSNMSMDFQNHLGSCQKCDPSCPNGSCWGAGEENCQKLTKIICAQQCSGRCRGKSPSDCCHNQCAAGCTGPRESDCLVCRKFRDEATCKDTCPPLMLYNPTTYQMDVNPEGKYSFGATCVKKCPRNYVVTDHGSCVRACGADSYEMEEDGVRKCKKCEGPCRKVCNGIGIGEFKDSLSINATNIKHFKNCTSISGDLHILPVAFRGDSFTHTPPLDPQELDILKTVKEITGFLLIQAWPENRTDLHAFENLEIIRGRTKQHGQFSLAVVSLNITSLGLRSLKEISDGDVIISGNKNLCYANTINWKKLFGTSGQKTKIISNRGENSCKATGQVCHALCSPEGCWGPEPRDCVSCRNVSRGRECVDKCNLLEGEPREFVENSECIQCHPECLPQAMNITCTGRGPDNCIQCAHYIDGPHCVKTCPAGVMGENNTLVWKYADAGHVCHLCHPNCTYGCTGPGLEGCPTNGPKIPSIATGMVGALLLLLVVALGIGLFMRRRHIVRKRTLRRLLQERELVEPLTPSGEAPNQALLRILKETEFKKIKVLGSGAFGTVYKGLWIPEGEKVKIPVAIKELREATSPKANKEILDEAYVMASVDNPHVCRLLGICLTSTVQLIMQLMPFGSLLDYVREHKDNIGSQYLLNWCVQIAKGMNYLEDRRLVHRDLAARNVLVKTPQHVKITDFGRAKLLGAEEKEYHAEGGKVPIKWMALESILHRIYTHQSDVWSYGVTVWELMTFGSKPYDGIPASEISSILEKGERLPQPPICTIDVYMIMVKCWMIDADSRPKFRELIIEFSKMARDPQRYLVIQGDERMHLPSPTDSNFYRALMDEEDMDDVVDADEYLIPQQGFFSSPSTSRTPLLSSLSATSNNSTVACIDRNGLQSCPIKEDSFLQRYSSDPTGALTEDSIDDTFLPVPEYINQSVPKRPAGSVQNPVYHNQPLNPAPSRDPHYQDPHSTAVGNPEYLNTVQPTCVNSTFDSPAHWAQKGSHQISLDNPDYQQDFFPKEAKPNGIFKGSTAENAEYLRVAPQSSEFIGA

Take `CCc1cc(Nc2ncc(Cl)c(Nc3ccc(C)c(C)c3P(C)(C)=O)n2)c(OC)cc1N1CCC(N2CCN(C)CC2)CC1` [Comparative Compound A, reference compound]: the values for the IC50 in experiment [1] and in experiment [2] were 0.54 nM and 405 nM, respectively.
With `CCc1cc(Nc2ncc(Cl)c(Nc3ccc(C)c(C)c3P(C)(C)=O)n2)c(OC)cc1N1CCC2(CC1)CC(N(C)C)C2` [Compound 6, (6-((5-chloro-2-((4-(2-(dimethylamino)-7-azaspiro[3.5]nonan-7-yl)-5-ethyl-2-methoxyphenyl)amino)pyrimidin-4-yl)amino)-2,3-dimethylphenyl)dimethylphosphine oxide], in experiment [1], the IC50 turned out to be 0.88 nM.
`CCc1cc(Nc2ncc(Cl)c(Nc3ccc(C)c(C)c3P(C)(C)=O)n2)c(OC)cc1N1CC2(CCN(C)CC2)C1` [Compound 24, (6-((5-Chloro-2-((5-ethyl-2-methoxy-4-(7-methyl-2,7-diazaspiro[3.5]non-2-yl)phenyl)amino)pyrimidin-4-yl)amino)-2,3-dimethylphenyl)dimethylphosphine oxide] registered an IC50 in experiment [1] of 0.55 nM. For the same compound, in experiment [2], the “inhibitory effect on EGFR phosphorylation (in words)” value is “good inhibitory effect” and the IC50 amounted to 150 nM.
In the same order, the values of `CCc1cc(Nc2ncc(Cl)c(Nc3ccc(C)c(C)c3P(C)(C)=O)n2)c(OC)cc1N1CCC(N2C[C@H]3CC[C@@H](C2)N3C)CC1` [Compound 51, (6-((5-chloro-2-((5-ethyl-2-methoxy-4-(4-((1R,5S)-8-methyl-3,8-diazabicyclo[3.2.1]octan-3-yl)piperidin-1-yl)phenyl)amino)pyrimidin-4-yl)amino)-2,3-dimethylphenyl)dimethylphosphine oxide] are 0.0452 nM, “good inhibitory effect” and 132 nM.

(Values after patent publication US20250101052A1, “COMPOUND FOR EGFR KINASE INHIBITOR, COMPOSITION, AND USE THEREOF” (INNOVATION INSTITUTE FOR ARTIFICIAL INTELLIGENCE IN …, priority 2021, published 2025).)
